Experimental data: EP0655506B1 (priority 1994, dated 1995)

Key:
[1] = molecular target: T1, T7 DNA polymerase (28 amino acid deletion in the exonuclease domain, complexed with thioredoxin) (Escherichia phage T7, UniProt P00581, DEL118-145); test: Inhibition of DNA synthesis on synthetic Primer-Template A, competition of dATP and ddATP (Example 9); type: biochemical, bacteriophage T7; conditions: in the presence of 10 µM dATP, 37°C, read-out: [ddATP] for 50% inhibition
T1 construct: made in house; host or cells: strain that produces E. coli thioredoxin (lac promoter)
Protocol: (§1) In this example the competition between a dNTP and a ddNTP is assayed for use at a single site in a synthetic primer-template. This assay differs from the others in that it limits the comparison of the use of the two substrates to a single site, avoiding the complication of sequence-specific variability in discrimination. […]
(§2) Each reaction mixture contains 25 pmoles each of primer and template. […] The mixtures are incubated at 37°C for 1 min (70°C for thermophilic DNA polymerases), and the reactions are initiated by the addition of 5 µl aliquots (0.01 to 1 unit) of the DNA polymerase being analyzed diluted in 20 mM TrisHCl, pH 7.5, 10 mM 2-mercaptoethanol and 0.05% bovine serum albumin. […] The disks are then dried under a heat lamp and counted in a scintillation counter in 5 ml of fluor (Opti-Fluor O, Packard). From the amount of radioactivity on each disk, the amount […] incorporated was determined. […]
(§3) All reactions are carried out with a constant amount of the DNA polymerase being analyzed; the amount of DNA polymerase should be sufficient to replicate 50% of the total dCMP residues in the single-stranded region of the template in the 10 min incubation in the presence of 10 µM dATP and the absence of ddATP. […]

[2] = molecular target: T2, T7 DNA polymerase Y526F (Escherichia phage T7, UniProt P00581, DEL118-145/Y526F); test: as above; type: biochemical, bacteriophage T7; conditions: in the presence of 10 µM dATP, 37°C, read-out: [ddATP] for 50% inhibition
T2 construct: made in house; host or cells: strain that produces E. coli thioredoxin (lac promoter)
Protocol: as §1, §2, §3

[3] = molecular target: T3, Taq DNA polymerase (unmodified DNA polymerase from Thermus aquaticus) (Thermus aquaticus, UniProt P19821); test: as above; type: biochemical; conditions: in the presence of 10 µM dATP, 70°C, read-out: [ddATP] for 50% inhibition
T3 construct: to the gene that produces the full length Taq DNA polymerase; made in house
Protocol: as §1, §2, §3

[4] = molecular target: T4, E. coli DNA polymerase I (large fragment, Klenow fragment), wild type (Escherichia coli, UniProt P00582); test: as above; type: biochemical; conditions: in the presence of 10 µM dATP, 37°C, read-out: [ddATP] for 50% inhibition
T4 construct: The large fragment of E. coli DNA polymerase I, commonly called the Klenow fragment; made in house
Protocol: as §1, §2, §3

[5] = molecular target: T5, HIV reverse transcriptase, change of Glu 89 to Glycine (Human immunodeficiency virus type 1 group M subtype B, UniProt P04585, E676G); conditions: relative to the unmutated enzyme; cited from earlier work
T5 construct: glu-89 of human immunodeficiency virus type 1 reverse transcriptase

SMILES	IC50 [1] [µM]	IC50 [2] [µM]	IC50 [3] [µM]	IC50 [4] [µM]	ddGTP required to obtain same extent of inhibition [5]
Nc1ncnc2c1ncn2[C@H]1CC[C@@H](COP(=O)(O)OP(=O)(O)OP(=O)(O)O)O1 [ddATP]	~30	> 500	> 500	> 500	–
Nc1nc2c(ncn2[C@H]2CC[C@@H](COP(=O)(O)OP(=O)(O)OP(=O)(O)O)O2)c(=O)[nH]1 [ddGTP]	–	–	–	–	about 10 times more
